# Assay results as given in ChEMBL document CHEMBL1201862, “PubChem BioAssay data set” (2004).
#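 Test compounds were applied to cells in 96-well plates for 48 hours at 5 doses. Abbreviation: GI50, concentration required for 50% inhibition of growth.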 Activity calls are given as the source filed them. No stated cut-off is given here; in the data, active = GI50 up to about 1.1 µM and inactive = higher.
# Columns and labels:
# Test in all cases: inhibition of tumour cell growth, NCI panel, 48 h
# [1] = system: A549
# [2] = system: BT-549
# [3] = system: CAKI-1
# [4] = system: CCRF-CEM
# [5] = system: DMS-114
# [6] = system: DMS-273
# [7] = system: EKVX
# [8] = system: HCC 2998
# [9] = system: HCT-116
# [10] = system: HCT-15
# [11] = system: HL-60
# [12] = system: HOP-18
# [13] = system: IGROV-1
# [14] = system: K562
# [15] = system: KM-20L2
# [16] = system: LOX IMVI
# [17] = system: LXFL 529
# [18] = system: M14
# [19] = system: M19-MEL
# [20] = system: MDA-MB-231
# [21] = system: MOLT-4
# [22] = system: Malme-3M
# [23] = system: NCI-H522
# [24] = system: OVCAR-3
# [25] = system: OVCAR-4
# [26] = system: PC-3
# [27] = system: RPMI-8226
# [28] = system: RXF 393
# [29] = system: RXF 631
# [30] = system: SF-268
# [31] = system: SF-295
# [32] = system: SF-539
# [33] = system: SK-MEL-2
# [34] = system: SK-MEL-5
# [35] = system: SK-OV-3
# [36] = system: SN12C
# [37] = system: SNB-75
# [38] = system: SNB-78
# [39] = system: UO-31
# [40] = system: XF498
# [41] = system: 786-0
# [42] = system: A498
# [43] = system: ACHN
# [44] = system: COLO 205
# [45] = system: HOP-62
# [46] = system: HOP-92
# [47] = system: HT-29
# [48] = system: KM12
# [49] = system: NCI-H226
# [50] = system: NCI-H23
# [51] = system: NCI-H460
# [52] = system: OVCAR-5
# [53] = system: OVCAR-8
# [54] = system: SK-MEL-28
# [55] = system: SNB-19
# [56] = system: SW-620
# [57] = system: TK-10
# [58] = system: U-251
# [59] = system: UACC-257
# [60] = system: UACC-62
# [61] = system: DLD-1
# [62] = system: SR
compound,measurement,setting,value
CC1CCC2C(C)C(=O)OC3OC4(C)CCC1C32OO4 (stereo not drawn),GI50,[1],89.1 µM (inactive)
same,GI50,[2],86.5 µM (inactive)
same,GI50,[3],> 100 µM (inactive)
same,GI50,[4],83 µM (inactive)
same,GI50,[5],> 80.4 µM (inactive)
same,GI50,[6],> 100 µM (inactive)
same,GI50,[7],> 97.1 µM (inactive)
same,GI50,[8],> 100 µM (inactive)
same,GI50,[9],81.7 µM (inactive)
same,GI50,[10],98.4 µM
same,GI50,[11],37.4 µM (inactive)
same,GI50,[12],61.8 µM (inactive)
same,GI50,[13],> 88.9 µM (inactive)
same,GI50,[14],33.1 µM (inactive)
same,GI50,[15],> 100 µM (inactive)
same,GI50,[16],97.9 µM (inactive)
same,GI50,[17],65.5 µM (inactive)
same,GI50,[18],> 100 µM (inactive)
same,GI50,[19],> 100 µM (inactive)
same,GI50,[20],62.4 µM (inactive)
same,GI50,[21],66.1 µM (inactive)
same,GI50,[22],> 100 µM (inactive)
same,GI50,[23],45.1 µM (inactive)
same,GI50,[24],> 67.3 µM (inactive)
same,GI50,[25],> 72.8 µM (inactive)
same,GI50,[26],66.8 µM (inactive)
same,GI50,[27],53.2 µM (inactive)
same,GI50,[28],72.9 µM (inactive)
same,GI50,[29],> 100 µM (inactive)
same,GI50,[30],> 100 µM (inactive)
same,GI50,[31],> 100 µM (inactive)
same,GI50,[32],> 100 µM (inactive)
same,GI50,[33],> 100 µM (inactive)
same,GI50,[34],> 96.2 µM (inactive)
same,GI50,[35],> 100 µM (inactive)
same,GI50,[36],> 92.3 µM (inactive)
same,GI50,[37],61.7 µM (inactive)
same,GI50,[38],> 100 µM (inactive)
same,GI50,[39],82.2 µM (inactive)
same,GI50,[40],> 100 µM (inactive)
C=CCNC(=O)N(CCCCC(NC(C)=O)C(=O)NCc1ccccc1)Cc1ccccc1 (stereo not drawn),GI50,[41],> 100 µM (inactive)
same,GI50,[42],> 100 µM (inactive)
same,GI50,[1],> 100 µM (inactive)
same,GI50,[43],> 100 µM (inactive)
same,GI50,[3],> 100 µM (inactive)
same,GI50,[4],> 100 µM (inactive)
same,GI50,[44],> 100 µM (inactive)
same,GI50,[6],> 100 µM (inactive)
same,GI50,[7],> 100 µM (inactive)
same,GI50,[10],> 100 µM
same,GI50,[11],> 100 µM (inactive)
same,GI50,[12],> 100 µM (inactive)
same,GI50,[45],> 100 µM (inactive)
same,GI50,[46],65.8 µM (inactive)
same,GI50,[47],> 100 µM (inactive)
same,GI50,[13],> 100 µM (inactive)
same,GI50,[14],> 100 µM (inactive)
same,GI50,[15],> 100 µM (inactive)
same,GI50,[48],> 100 µM (inactive)
same,GI50,[16],> 100 µM (inactive)
same,GI50,[17],> 100 µM (inactive)
same,GI50,[18],> 100 µM (inactive)
same,GI50,[19],> 100 µM (inactive)
same,GI50,[21],> 100 µM (inactive)
same,GI50,[22],> 100 µM (inactive)
same,GI50,[49],> 100 µM (inactive)
same,GI50,[50],> 100 µM (inactive)
same,GI50,[51],> 100 µM (inactive)
same,GI50,[23],> 100 µM (inactive)
same,GI50,[24],> 100 µM (inactive)
same,GI50,[25],> 100 µM (inactive)
same,GI50,[52],> 100 µM (inactive)
same,GI50,[53],> 100 µM (inactive)
same,GI50,[27],> 100 µM (inactive)
same,GI50,[28],> 100 µM (inactive)
same,GI50,[29],> 100 µM (inactive)
same,GI50,[30],> 100 µM (inactive)
same,GI50,[31],> 100 µM (inactive)
same,GI50,[32],> 100 µM (inactive)
same,GI50,[54],> 100 µM (inactive)
same,GI50,[33],> 100 µM (inactive)
same,GI50,[34],> 100 µM (inactive)
same,GI50,[35],> 100 µM (inactive)
same,GI50,[36],> 100 µM (inactive)
same,GI50,[55],> 100 µM (inactive)
same,GI50,[37],> 100 µM (inactive)
same,GI50,[56],> 100 µM (inactive)
same,GI50,[57],> 100 µM (inactive)
same,GI50,[58],> 100 µM (inactive)
same,GI50,[59],> 100 µM (inactive)
same,GI50,[60],> 100 µM (inactive)
same,GI50,[39],> 100 µM (inactive)
same,GI50,[40],> 100 µM (inactive)
O=C1N[C@@H]2CCCC[C@@H]2C12CCCCC2,GI50,[41],> 100 µM (inactive)
same,GI50,[42],> 100 µM (inactive)
same,GI50,[1],> 100 µM (inactive)
same,GI50,[43],> 100 µM (inactive)
same,GI50,[4],> 100 µM (inactive)
same,GI50,[61],> 100 µM (inactive)
same,GI50,[7],> 100 µM (inactive)
same,GI50,[8],> 100 µM (inactive)
same,GI50,[9],> 100 µM (inactive)
same,GI50,[11],> 100 µM (inactive)
same,GI50,[12],> 100 µM (inactive)
same,GI50,[45],> 100 µM (inactive)
same,GI50,[47],> 100 µM (inactive)
same,GI50,[13],> 100 µM (inactive)
same,GI50,[14],> 100 µM (inactive)
same,GI50,[15],> 100 µM (inactive)
same,GI50,[48],> 100 µM (inactive)
same,GI50,[16],> 100 µM (inactive)
same,GI50,[17],> 100 µM (inactive)
same,GI50,[18],> 100 µM (inactive)
same,GI50,[19],> 100 µM (inactive)
same,GI50,[21],> 100 µM (inactive)
same,GI50,[22],> 100 µM (inactive)
same,GI50,[49],> 100 µM (inactive)
same,GI50,[50],> 100 µM (inactive)
same,GI50,[51],> 100 µM (inactive)
same,GI50,[24],> 100 µM (inactive)
same,GI50,[25],> 100 µM (inactive)
same,GI50,[52],> 100 µM (inactive)
same,GI50,[53],> 100 µM (inactive)
same,GI50,[27],> 100 µM (inactive)
same,GI50,[28],> 100 µM (inactive)
same,GI50,[29],> 100 µM (inactive)
same,GI50,[30],> 100 µM (inactive)
same,GI50,[31],> 100 µM (inactive)
same,GI50,[32],> 100 µM (inactive)
same,GI50,[54],> 100 µM (inactive)
same,GI50,[35],> 100 µM (inactive)
same,GI50,[36],> 100 µM (inactive)
same,GI50,[55],> 100 µM (inactive)
same,GI50,[37],> 100 µM (inactive)
same,GI50,[38],> 100 µM (inactive)
same,GI50,[62],> 100 µM (inactive)
same,GI50,[56],> 100 µM (inactive)
same,GI50,[57],> 100 µM (inactive)
same,GI50,[58],> 100 µM (inactive)
same,GI50,[59],> 100 µM (inactive)
same,GI50,[60],> 100 µM (inactive)
same,GI50,[39],> 100 µM (inactive)
same,GI50,[40],> 100 µM (inactive)
